Measurements: patent US10399949B2, “NK1 receptor antagonist” (KISSEI PHARMACEUTICAL CO., LTD., priority 2015, dated 2019)

How the values were obtained:
human NK1 receptor = target: T1, human NK1 receptor (Homo sapiens, UniProt P25103); assay: Affinity for human NK1 receptor (125I-substance P receptor binding test, membrane fraction); settings: membrane fraction of human NK1 receptor-expressing 293T cells, room temperature 60 minutes, read-out: pIC50 (inverse logarithm of the concentration required for 50% inhibition of 125I-substance P binding) (converted)
T1 construct: expressed in transfected cells; host or cells: 293T cells (RIKEN), transient transfection with pcDNA3.1(-) plasmid
Description: Affinity for Human NK1 Receptor
(3) Measurement of Binding Affinity to Human NK1 Receptor
(3-1) Preparation of Membrane Fraction from Human NK1 Receptor-Expressing Cells
Human NK1 receptor-expressing cells were prepared in a 175 cm^2 culture flask (Nippon Becton Dickinson). The formation of a complex of the human NK1 receptor expression plasmid and Lipofectamine 2000 was performed by calculating the culture area ratio and increasing the scale of the method described in the above 2-4 by the ratio. The human NK1 receptor-expressing cells were collected in a buffer solution for the membrane fraction preparation (50 mM Tris (Wako Pure Chemical), 120 mM sodium chloride (Wako Pure Chemical Industries), 5 mM potassium chloride (Wako Pure Chemical Industries), 1 mM ethylenediaminetetraacetic acid (Sigma), 0.002 mg/mL chymostatin (Peptide Institute), 0.04 mg/bacitracin (Wako Pure Chemical Industries), 0.005 mg/mL phosphoramidon (Peptide Institute) and 0.5 mM phenylmethylsulfonyl fluoride (Wako Pure Chemical Industries), pH7.4) and centrifuged at 1,880 g for 10 minutes, and the cell sediment was suspended in the buffer solution for the membrane fraction preparation. After freezing and thawing the cells once, the cells were homogenized using a Dounce-type homogenizer (cooled on ice, 1000 rpm, 20 times). The homogenized cell suspension was centrifuged at 20,000 rpm for 10 minutes, and the supernatant was removed to obtain cell sediment. The cell sediment was suspended again in the buffer solution for the membrane fraction preparation and homogenized using a Dounce-type homogenizer (cooled on ice, 1000 rpm, 30 times). The cell suspension was centrifuged at 20,000 rpm for 10 minutes, and the supernatant was removed to obtain cell sediment. The same homogenization and centrifugation were repeated again, and final cell sediment was obtained. The final cell sediment was suspended in a buffer solution for the receptor binding test (50 mM Tris (Wako Pure Chemical Industries), 3 mM manganese chloride (Wako Pure Chemical Industries), 0.002 mg/mL chymostatin (Peptide Institute), 0.04 mg/bacitracin (Wako Pure Chemical Industries) and 0.02% bovine serum albumin (Sigma), pH 7.4), and the protein concentration was measured using BCA Protein Assay Kit (Pierce).
(3-2) Receptor Binding Test
The buffer solution for the receptor binding test was dispensed to the wells of a 96-well assay plate (Greiner) at 22.5 μL/well. DMSO solutions of a test compound, which were prepared at an 80-time higher concentration using 100% dimethyl sulfoxide (DMSO), were added to the wells at 2.5 μL/well (final concentrations of 1 nM to 100 nM), and the solutions were mixed. As a radiolabeled ligand, ^125I-substance P (Substance P, [^125I]Tyr^8-, PerkinElmer) was used. ^125I-substance P was diluted with the buffer solution for the receptor binding test to a concentration resulting in […] and added to the 96-well assay plate, and the solutions were mixed. The membrane fraction prepared from the human NK1 receptor-expressing cells was diluted with the buffer solution for the receptor binding test to a concentration resulting in 8 to 10 μg/well, suspended until the suspension became in such a homogenous state that the suspension could flow through a 27G injection needle smoothly and then added to the 96-well assay plate at 150 μL/well. Then, the plate was incubated at room temperature for 60 minutes while shaking the plate. […]

[1] = Measurement of drug concentrations in the brain after foot-tapping test; type: in vivo; settings: male gerbil; 0.3 mg/kg from the jugular vein; brain extracted after foot-tapping was finished; LC/MS
Description: A male gerbil (Japan SLC) was anesthetized with isoflurane, and 0.3 mg/kg of a test compound was administered from the jugular vein. After 4 hours, GR73632 (5 pmol/5 μL saline), which is an NK1 receptor agonist, was administered into the cerebral ventricle at the part 1 mm lateral to and 4.5 mm below the bregma in the head, under anesthesia with isoflurane. After the administration, the gerbil was moved to an observation cage, and the foot-tapping period during 30 minutes after the recovery of the righting reflex was measured. As a comparative example, aprepitant, which is an NK1 receptor antagonist, was tested in the same manner. The foot-tapping inhibition rate (%) of each test compound was calculated by the following equation. Foot-tapping inhibition rate (%)={1−(Foot-tapping period when test compound was administered)/(Foot-tapping period when solvent was administered)}×100 (2) Measurement of Drug Concentrations
After foot-tapping was finished, laparotomy was performed immediately under anesthesia with ether, and a blood sample was taken from the abdominal vena cava. At the same time, the brain was extracted. Through a quantitative analysis using liquid chromatography-mass spectrometry (LC/MS), the concentrations of the test compound in the plasma and the brain were measured.
In the table, Ex. No. means the Example number. […]

T1 sequence (P25103 whole entry): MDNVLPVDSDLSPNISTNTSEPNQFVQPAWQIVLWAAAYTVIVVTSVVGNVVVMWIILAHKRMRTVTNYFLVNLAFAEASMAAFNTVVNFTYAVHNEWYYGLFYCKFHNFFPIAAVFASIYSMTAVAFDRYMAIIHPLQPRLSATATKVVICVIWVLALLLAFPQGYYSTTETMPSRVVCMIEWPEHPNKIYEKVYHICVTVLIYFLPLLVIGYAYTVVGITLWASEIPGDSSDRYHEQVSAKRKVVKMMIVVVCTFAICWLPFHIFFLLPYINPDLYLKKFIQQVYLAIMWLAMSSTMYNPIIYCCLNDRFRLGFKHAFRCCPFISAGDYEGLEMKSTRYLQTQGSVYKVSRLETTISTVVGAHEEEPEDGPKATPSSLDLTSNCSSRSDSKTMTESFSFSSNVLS

| IC50 (human NK1 receptor) | Conc. (nM) (drug concentration in the brain) [1] | SMILES |
| --- | --- | --- |
| 0.851 nM | 162 nM | Cc1cc(F)ccc1[C@H]1CN(C[C@H]2CC[C@@H](CC(=O)O)CC2)CCN1C(=O)N(C)[C@H](C)c1cc(C(F)(F)F)cc(C(F)(F)F)c1 [Example 4, cis-{4-[(S)-4-{[(R)-1-(3,5-Bistrifluoromethylphenyl)ethyl]methylcarbamoyl}-3-(4-fluoro-2-methylphenyl)piperazin-1-ylmethyl]cyclohexyl}acetic acid] |
| 0.851 nM | 181 nM | Cc1cc(F)ccc1[C@H]1CN(C[C@H]2CC[C@H](CC(=O)O)CC2)CCN1C(=O)N(C)[C@H](C)c1cc(C(F)(F)F)cc(C(F)(F)F)c1 [Example 5, trans-{4-[(S)-4-{[(R)-1-(3,5-Bistrifluoromethylphenyl)ethyl]methylcarbamoyl}-3-(4-fluoro-2-methylphenyl)piperazin-1-ylmethyl]cyclohexyl}acetic acid] |
